ChEMBL document CHEMBL5365456, “Isolation and biological activity of natural chalcones based on antibacterial mechanism classification” (Bioorg Med Chem, 2023)
In brackets after ≈: the same amount, converted by molar mass.

System: Mycobacterium tuberculosis
Assay: Antitubercular activity against multi-drug-resistant Mycobacterium tuberculosis M22 assessed as bacterial growth inhibition measured for 9 days
Format: functional
Details: M22, 216 h, time 9 day

O=C(CCc1ccc(O)cc1)c1c(O)cc(O)cc1O [PHLORETIN]
MIC90: 182 µM (≈ 49.9 µg/mL)
